In brackets after ≈: the same amount, converted by molar mass. Where two headings read alike, the source gives them in different places.
Assays:
[1] = tested on: P. aeruginosa DSM 19880; assay: Non-mycobacterial REMA assay; assay type: cell-based; conditions: Pseudomonas aeruginosa, DSM19880, read-out: Minimum inhibitory concentration 95%
[2] = tested on: B. cereus NCTC 7464; assay: Non-mycobacterial REMA assay; assay type: cell-based; conditions: Bacillus cereus, NCTC7464, read-out: Minimum inhibitory concentration 95%
[3] = tested on: E. faecium NCTC 7171; assay: Non-mycobacterial REMA assay; assay type: cell-based; conditions: Enterococcus faecium, NCTC7171, read-out: Minimum inhibitory concentration 95%
[4] = tested on: Mtb mc^27902 pMV261; assay: microbe, parasite or virus in culture; assay type: cell-based; conditions: Mycobacterium tuberculosis
[5] = tested on: HepG2 human liver cancer cell line; assay: MTS cytotoxicity assay, liver cells; assay type: cell-based; conditions: 96 h, read-out: MTS percentage survival @ 100 µM
[6] = tested on: K. pneumoniae NCTC 9633; assay: Non-mycobacterial REMA assay; assay type: cell-based; conditions: Klebsiella pneumoniae, NCTC9633, read-out: Minimum inhibitory concentration 95%
[7] = tested on: A. baumannii NCTC 12156; assay: Non-mycobacterial REMA assay; assay type: cell-based; conditions: Acinetobacter baumannii, NCTC12156, read-out: Minimum inhibitory concentration 95%
[8] = tested on: AC10 hybrid adult ventricular cardiomyocytes; assay: MTS cytotoxicity assay, cardiomyocytes; assay type: cell-based; conditions: Homo sapiens, AC10 cardiac, 96 h, read-out: MTS percentage survival @ 100 µM
[9] = tested on: RAW264.7 murine macrophage cells; assay: cells; assay type: cell-based; conditions: for viability at 100 µM / IC50: Mus musculus; for viability at 100 µM: RAW264.7, 96 h, read-out: MTS percentage survival @ 100 µM; for IC50: RAW264.7 macrophages, 0 to 100 µM, read-out: IC50 (cell viability, MTS assay); for selectivity index (SI): from RAW264.7 IC50 and Mtb MIC95
[10] = tested on: S. agalactiae NCTC 8181; assay: Non-mycobacterial REMA assay; assay type: cell-based; conditions: Streptococcus agalactiae, NCTC8181, read-out: Minimum inhibitory concentration 95%
[11] = tested on: E. faecalis NCTC 775; assay: Non-mycobacterial REMA assay; assay type: cell-based; conditions: Enterococcus faecalis, NCTC775, read-out: Minimum inhibitory concentration 95%
[12] = tested on: Mtb mc^27902 pMV261; assay type: cell-based, Mycobacterium tuberculosis; conditions: in the presence of glucose; 37 °C, 30 min
[13] = tested on: S. aureus NCTC 2981; assay: Non-mycobacterial REMA assay; assay type: cell-based; conditions: Staphylococcus aureus, NCTC2981, read-out: Minimum inhibitory concentration 95%
[14] = tested on: Mtb mc^27902 pMV261; assay type: cell-based, Mycobacterium tuberculosis; conditions: for TMM levels (TLC): at the highest concentrations
[15] = tested on: S. enterica NCTC 6754; assay: Non-mycobacterial REMA assay; assay type: cell-based; conditions: Salmonella enterica, NCTC6754, read-out: Minimum inhibitory concentration 95%
Procedure: (§1) Bacterial minimum inhibition concentrations (MIC) were determined using the Resazurin Microtiter Assay (REMA) method according to Palomino et al.[28] Stock solutions of the tested compounds were prepared in sterile dimethyl sulfoxide (DMSO), then diluted in 7H9OPALPen^1Cyc^10(Kan^25) to obtain a final drug concentration range of 32–0.032 μg/mL. A suspension of the test Mycobacterium was cultured in 7H9OPALPen^1Cyc^10(Kan^25) containing 0.05% v/v Tween^80 for one week at 37 °C, 5% CO2. The bacterial suspension was adjusted to 0.5 McFarland and diluted in 7H9OPALPen^1Cyc^10(Kan^25) 1:25. 100 μL of the inoculum was added to each well of a 96-well microplate together with 100 μL of the compound titration. The plate was incubated at 37 °C, 5% CO2. After 5 days, 10.5 μL 0.1% (w/v) sterile resazurin (solubilised in sterile PBS containing 0.02% v/v Tween^80) was added. Reduced resazurin was detected using fluorescence (Ex/Em 530/590 nm) in a FLUOstar Optima, BMG Labtech. All titre measurements were plotted in SigmaPlot™ and 4-parameter logistic (4PL) model regressions conducted. The relative MIC95 of each curve was calculated and averaged (Table 1). Testing was performed in duplicate with two independent biological repeats. […] Though, for these cultures, dilutions were performed at 1:125 prior to inoculation of the plate and incubation for 4 h (Supplementary Table 3). Known antitubercular agents used in this study were rifampicin (RIF), isoniazid (INH), ISO, EMB, ethionamide (ETH), linezolid (LZD), delamanid (DEL) and moxifloxacin (MOX).

[16] = tested on: E. coli K12; assay: Non-mycobacterial REMA assay; assay type: cell-based; conditions: Escherichia coli, read-out: Minimum inhibitory concentration 95%
Procedure: as §1

[17] = tested on: E. cloacae NCTC 10005; assay: Non-mycobacterial REMA assay; assay type: cell-based; conditions: Enterobacter cloacae, NCTC10005, read-out: Minimum inhibitory concentration 95%
[18] = tested on: S. pyogenes NCTC 8198; assay: Non-mycobacterial REMA assay; assay type: cell-based; conditions: Streptococcus pyogenes, NCTC8198, read-out: Minimum inhibitory concentration 95%
[19] = tested on: Mtb mc^27902 pMV261; assay: Synergy (two-drug checkerboard style) assay; assay type: cell-based, Mycobacterium tuberculosis; conditions: in combination with RIF
[20] = tested on: M. bovis BCG; conditions: library of 52,000 compounds; cited from earlier work
[21] = mc^27902 pMV261, REMA, read-out: Mtb MIC95
[22] = RAW264.7 macrophage, 100 µM, 96 h
[23] = values used for the SI, in brackets, […], read-out: MIC95
[24] = values used for the SI, […], read-out: MIC95

SMILES	MIC [1] [µg/mL]	MIC [2] [µg/mL]	MIC [3] [µg/mL]	MIC [4, 21] [µg/mL]	viability at 100 µM [5] [%]	MIC [6] [µg/mL]	MIC [7] [µg/mL]	viability at 100 µM [8] [%]	viability at 100 µM [9, 22] [%]	IC50 [9] [µM]	MIC [10] [µg/mL]	MIC [11] [µg/mL]	MIC [13] [µg/mL]	MIC [15] [µg/mL]	MIC [16] [µg/mL]	MIC [17] [µg/mL]	MIC [18] [µg/mL]	other results
CC(C)CCOc1ccc(NC(=S)NC23CC4CC(CC(C4)C2)C3)cc1 [Ad-1-ISO, 1-((3s,5s,7s)-adamantan-1-yl)-3–(4-(isopentyloxy)phenyl)thiourea]	> 32	> 32	> 32	1.08	16.1 ± 7.2	> 32	> 32	55 ± 13.2	73.8 ± 7.5	> 100	> 32	> 32	> 32	> 32	> 32	> 32	> 32	selectivity index (SI) [9]: > 100; efflux of EtBr [12]: significantly increased the overall efflux of EtBr; effect on mycolic acid biosynthesis (FAMEs/MAMEs, TLC/autoradiography) [14]: Depletion of mycolates into the cell wall was only observed at the highest concentrations tested; TMM levels (TLC) [14]: slight increase in the TMM levels
CC(C)CCOc1ccc(NC(=S)NC2C3CC4CC(C3)CC2C4)cc1 (stereo not drawn) [Ad-2-ISO, 1-((1r,3r,5r,7r)-adamantan-2-yl)-3–(4-(isopentyloxy)phenyl)thiourea]	> 32	> 32	> 32	2.88	13.4 ± 5.1	> 32	> 32	51.1 ± 17.7	22.5 ± 0.9	95.3	> 32	> 32	> 32	> 32	> 32	> 32	> 32	FICI [19]: 0.52; efflux of EtBr [12]: significantly increased the overall efflux of EtBr; TDM and glucose monomycolate levels (TLC) [14]: decrease in TDM and glucose monomycolate; effect on mycolic acid biosynthesis (FAMEs/MAMEs, TLC/autoradiography) [14]: more significant reduction in radiolabel incorporation; TMM levels (TLC) [14]: slight increase in the TMM levels
CC[C@@H](CO)NCCN[C@@H](CC)CO [EMB, Ethambutol]	> 32	> 32	> 32	1.99	95.2 ± 6	> 32	> 32	93.7 ± 2.7	88.5 ± 8.6	–	> 32	> 32	> 32	> 32	> 32	> 32	> 32	–
CCc1cc(C(N)=S)ccn1 [ETH, ethionamide]	> 32	> 32	> 32	–	92.7 ± 7	> 32	> 32	90.5 ± 4.7	–	–	> 32	> 32	> 32	> 32	> 32	> 32	> 32	MIC ([4]; read-out: Mtb MIC95): 1.05 µg/mL; viability at 100 µM [9]: 100 ± 5.6%
NNC(=O)c1ccncc1 [INH, isoniazid]	> 32	> 32	> 32	0.04	97 ± 3.8	> 32	> 32	92.6 ± 1.2	96.3 ± 2	–	> 32	> 32	> 32	> 32	> 32	> 32	> 32	–
CC(=O)NC[C@H]1CN(c2ccc(N3CCOCC3)c(F)c2)C(=O)O1 [LZD, linezolid]	> 32	1.75 (≈ 5.2 µM)	0.158 (≈ 0.468 µM)	0.91	105 ± 5.1	> 32	31.1 (≈ 92.1 µM)	103 ± 1.8	38.3	16.2	2.1 (≈ 6.23 µM)	0.921 (≈ 2.73 µM)	23.7 (≈ 70.3 µM)	> 32	> 32	> 32	0.543 (≈ 1.61 µM)	MIC [4, 23]: 0.55 µg/mL; MIC [4, 24]: 1.63 µM
CO[C@H]1/C=C/O[C@@]2(C)Oc3c(C)c(O)c4c(O)c(c(/C=N/N5CCN(C)CC5)c(O)c4c3C2=O)NC(=O)/C(C)=C\C=C\[C@H](C)[C@H](O)[C@@H](C)[C@@H](O)[C@@H](C)[C@H](OC(C)=O)[C@@H]1C [RIF, rifampicin]	> 12.8	0.045 (≈ 0.0547 µM)	1.73 (≈ 2.11 µM)	0.04	47.7 ± 3.2	> 12.8	1.36 (≈ 1.66 µM)	40.7 ± 6.6	66.3 ± 5	–	0.08 (≈ 0.0972 µM)	> 12.8	< 0.0125	12.8 (≈ 15.5 µM)	3.03 (≈ 3.69 µM)	> 12.8	6.16 (≈ 7.48 µM)	–
CC(C)=CCC/C(C)=C/CNCCNC1C2CC3CC(C2)CC1C3 (stereo not drawn) [SQ109, N-Adamantan-2-yl-N’-((E)-3,7-dimethylocta-2,6-dienyl)ethane-1,2-diamine]	> 32	> 32	20.1 (≈ 60.8 µM)	0.33	15.1 ± 4.1	> 32	20.7 (≈ 62.7 µM)	40.2 ± 2.3	61.1 ± 2.9	> 100	> 32	21.1 (≈ 63.8 µM)	16.9 (≈ 51 µM)	> 32	17.4 (≈ 52.5 µM)	16.8 (≈ 50.9 µM)	> 32	MIC [4, 23]: 0.12 µg/mL; MIC [4, 24]: 0.36 µM; selectivity index (SI) [9]: > 100
O=C(N/N=C/c1cccc(F)c1)C12CC3CC(CC(C3)C1)C2 [adamantyl-hydrazone]	–	–	–	–	–	–	–	–	–	–	–	–	–	–	–	–	–	MIC [20]: < 2 µg/mL

Source: PMC12096669, “Structural isomerisation affects the antitubercular activity of adamantyl-isoxyl adducts” (Journal of Enzyme Inhibition and Medicinal Chemistry, 2025)
